Measured values taken from patent US20030139331A1, “Treatment of cancer by reduction of intracellular energy and pyrimidines” (priority 2000, published 2003).
“Also recorded” adds a separate entry of the source.

How the values were obtained:
[1] = test system: first passage CD8F1 advanced spontaneous breast tumors; assay: in vivo; settings: for effect on tumor growth / anticancer activity (in words): advanced CD8F1 breast tumors in mice; for Regressions/Survivors: partial tumor regressions; for partial tumor regression (P.R.) rate: three pooled published experiments, MMPR, 6-AN, PALA alone and combined, P.R. = 50% or more tumor shrinkage, three courses, 1-week interval
Excerpt: (§1) Table 1 evaluates Saline-treated controls (Group 1), 6-AN (Group 2) and DDP (Group 3) as single agents, and in combination (Group 4), against 1st generation subcutaneous solid tumor transplants of advanced CD8F, spontaneous breast tumors. In the same experiment (i.e., same tumor transplants), is a group adding 6-AN to PALA and MMPR (MAP, Group 5), as well as a group with MAP administered prior to DDP (Group 6).
(§2) Each experiment is from a different brei (i.e., each from a different group of 3-4 spontaneous tumors) and, therefore, each transplant group contained a different number of chemotherapeutically sensitive and/or resistant tumor cells.

[2] = test system: 1st passage tumor transplants of CD8F1 spontaneous breast tumors; assay: Effect of MMPR + 6-AN + PALA on tumor ATP pools in CD8F1 mice; type: in vivo; parameters: tumor ATP levels 48 hours after treatment, % of normal (saline-treated control tumors) / 6 HR % Saline Control / 24 HR % Saline Control / 48 HR % Saline Control / 72HR % Saline Control / 6 HW % Saline Control: concentration or dose not given beside the values; settings: for tumor ATP levels 48 hours after treatment, % of normal (saline-treated control tumors): 48 hours after administration; for tumor ATP level, % of normal: murine breast tumors in vivo, time not stated in the sentence; for 6 HW % Saline Control: 6 hr; for 6 HR % Saline Control: tumor ATP 6 hr after i.p. injection
[3] = test system: murine breast cancers, colon tumors and leukemia, and human breast cancer xenografts; assay: MAP plus anticancer agents in advanced tumor-bearing mice with a variety of tumor types; type: in vivo; settings: MAP co-administered with the named anticancer agent
Description: Summary of Preclinical Therapeutic Results with MAP+Cancer Chemotherapy—MAP+each of nine mechanistically-different apoptosis-inducing anticancer agents was administered to advanced tumor-bearing mice with a variety of tumor types (murine breast cancers, colon tumors and leukemia, and human breast cancer xenografts).

[4] = test system: MDA-MB 468 human breast cancer xenografts; assay: Taxotere with MAP or MAPAL in MDA-MB-468 human breast cancer xenografts; type: in vivo; settings: for PR (partial tumor regression): CR included in PR rate; for (CR) complete tumor regression: included in PR rate; for % Partial Regressions: tumors averaged 100 mg at initiation, label subscript = mg/kg
Excerpt: Table 2 presents results one month after completing a q 2 week×3 schedule with Taxotere (TXT40 or TXT20; subscript=mg/kg), initiated in mice (10/grp) with subcutaneous advanced (100+mg) MDA-MB 468 breast cancer xenografts, are as follows: […]

tumor ATP levels = settings: cited from earlier work
[5] = test system: patients with disseminated cancer; settings: cited from earlier work
mouse lymphoma cells = settings: in vitro; cited from earlier work
[6] = test system: human soft tissue sarcoma cell lines; assay: Sensitivity of human soft tissue sarcoma cell lines to L-alanosine by MTAP status; type: cell-based; settings: cells lacking MTAP activity
Excerpt: An examination of MTAP expression in ten human soft tissue sarcoma cell lines found MTAP not detectable in three of the ten cell lines. These three cell lines were greater than 10-fold more sensitive to L-alanosine than the cell lines containing MTAP. […] In vivo studies of L-alanosine+MMPR, as well as the addition of 6-AN, are being evaluated (82).
An examination of MTAP expression in ten human soft tissue sarcoma cell lines found MTAP not detectable in four of the ten cell lines. These four cell lines were sensitive to L-alanosine.

in vivo = settings: CD8F1, mouse, in vivo
Excerpt: as §1, §2

[7] = test system: spontaneous, autochthonous CD8F1 breast tumors; assay: Therapy of mice bearing spontaneous, autochthonous CD8F1 breast tumors; type: in vivo
Excerpt: Anticancer Effect of MAP Alone in Spontaneous Murine Breast Tumors (Ref. 39)—Table 3 records that MAP produced a partial tumor regression rate of 38% in mice bearing large spontaneous, autochthonous breast tumors. There were 24 partial tumor regressions in 64 surviving mice with acceptable toxicity (4% mortality, 3 deaths in 67 treated mice). Spontaneous regression of these spontaneous breast cancers has never been observed.

[8] = test system: MDA-MB 468 human breast cancer xenografts; assay: Taxotere with MAP or MAPAL in MDA-MB-468 human breast cancer xenografts; type: in vivo; settings: pyruvate for 1 day on the 5th day after each ATP-depleting treatment
[9] = 69 days after initiating therapy, listed as TXT20
[10] = 69 days after initiating therapy, listed as Taxotere40
[11] = Exp.3069F, tumors averaged 80 mg at start, three i.p. courses at 10-11 day intervals, after third course
[12] = seventh series copy of Table 1, 24 hr
[13] = seventh series copy of Table 1, 48 hr
[14] = seventh series copy of Table 1, 72 hr
[15] = tumor ATP 24 hr after i.p. injection, % of saline control
[16] = tumor ATP 48 hr after i.p. injection, % of saline control
[17] = tumor ATP 72 hr after i.p. injection, % of saline control

Structure (SMILES): O=C(O)C[C@H](NC(=O)CP(=O)(O)O)C(=O)O [PALA, N-(phosphonacetyl)-L-aspartic acid]
- effect on tumor growth / anticancer activity (in words) [1]: not antitumor active; also recorded: does not have anticancer activity
- effect on tumor ATP levels (in words) ([2]; low dose PALA): had no effect on ATP levels; also recorded: does not effect ATP depletion; also recorded: devoid of an ATP depleting effect; also recorded: does not affect ATP depletion; also recorded: neither reduces tumor ATP levels nor inhibits tumor growth

Structure (SMILES): CC(=O)O[C@@]12CO[C@@H]1C[C@H](O)[C@@]1(C)C(=O)[C@H](O)C3=C(C)[C@@H](OC(=O)[C@H](O)[C@@H](NC(=O)OC(C)(C)C)c4ccccc4)C[C@@](O)([C@@H](OC(=O)c4ccccc4)[C@H]21)C3(C)C [Taxotere, taxotere]
- enhancement of anticancer agent activity by co-administered MAP (in words) [3]: significantly enhance response rates
- PR (partial tumor regression) [4, 9]: 0%
- PR (partial tumor regression) [4, 10]: 60%
- Mortality ([4]; 69 days after initiating therapy, every 2 weeks x 3, 10-11 mice per group): 0%
- (CR) complete tumor regression [4, 9]: (0%)
- (CR) complete tumor regression [4, 10]: (10%)
- NR (no tumor regression) [4, 9]: 100%
- NR (no tumor regression) [4, 10]: 40%
- tumor regressions with the single agent ([4]; MDA-MB-468 tumor model described as very sensitive): 90-100%
- tumor regrowth beginning, days after the third and last injection ([4]; full (MTD) dose Taxotere, Group 1): 41 days
- % Tumors Progressing ([4]; treatment q 2 weeks x 3, progressing tumors larger than P.R. tumors and growing): 0%
- % Partial Regressions ([4]; treatment q 2 weeks x 3): 100%
- % Partial Regressions ([4]; treatment q 2 weeks x 3, listed as Taxotere40): 100%

Structure (SMILES): NC(=O)c1ccc(N)nc1 [6-AN, 6-aminonicotinamide]
- % Weight Change ([1]; Exp.3069F, after third course): +6%
- Dead/Total ([1]; Exp.3069F, after third course): 3/10
- Regressions/Survivors ([1]; Exp.3069F, after third course): 0/7
- Av. Tumor W't (mg) [1, 11]: 1,765 mg
- effect on tumor growth / anticancer activity (in words) [1]: tumor growth was inhibited
- partial tumor regression (P.R.) rate [1]: no partial regressions
- toxicity of in vivo schedules (tumor ATP levels; 6-AN 10 mg/kg q 3 hours x 3 on days 1,3,5 or continuous infusion): too toxic
- tumor ATP levels, % of normal (tumor ATP levels; single dose of 6-AN alone at 10 mg/kg, different tumor model): 75-80%
- dose of 6-AN determined to be safe in early clinical trials ([5]; for up to 28 consecutive days of treatment): 0.2 mg/kg/day
- clinical forms of 6-AN toxicity ([5]; three Phase I trials, daily administration): at low dose a mixed B complex vitamin deficiency, and at high dose CNS toxicity; also recorded: a low dose mixed B complex vitamin deficiency, and a high dose-dependent CNS toxicity
- tumor ATP levels 48 hours after treatment, % of normal (saline-treated control tumors) [2]: 69%
- tumor ATP level, % of normal [2]: 75%
- tumor ATP level, % of normal ([2]; listed as 6-Aminonicotinamide): 69%
- 6 HW % Saline Control ([2]; seventh series copy of Table 1): 77%
- 24 HR % Saline Control [2, 12]: 75%
- 48 HR % Saline Control [2, 13]: 69%
- 72HR % Saline Control [2, 14]: 169%
- 6 HR % Saline Control ([2]; % of saline control): 77%
- 24 HR % Saline Control [2, 15]: 75%
- 48 HR % Saline Control [2, 16]: 69%
- 72HR % Saline Control [2, 17]: 169%

Structure (SMILES): COc1cc([C@@H]2c3cc4c(cc3[C@@H](O[C@@H]3O[C@@H]5CO[C@@H](C)O[C@H]5[C@H](O)[C@H]3O)[C@H]3COC(=O)[C@H]23)OCO4)cc(OC)c1O [etoposide]
- enhancement of anticancer agent activity by co-administered MAP (in words) [3]: significantly enhance response rates

Structure (SMILES): N[C@@H](Cc1ccc(N(CCCl)CCCl)cc1)C(=O)O [PAM, phenylalanine mustard]
- Partial Regressions (%) ([1]; Table 6, MAP ± PAM): did not produce tumor regressions
- enhancement of anticancer agent activity by co-administered MAP (in words) [3]: significantly enhance response rates

Structure (SMILES): N[C@@H](CN(O)N=O)C(=O)O [L-alanosine]
- cell growth, % of control (mouse lymphoma cells): 59%
- intracellular tumor cell ATP pool, % of normal (control) (mouse lymphoma cells): 63%

Structure (SMILES): CO[C@@]12[C@H](COC(N)=O)C3=C(C(=O)C(C)=C(N)C3=O)N1C[C@@H]1N[C@@H]12 [mitomycin C]
- enhancement of anticancer agent activity by co-administered MAP (in words) [3]: significantly enhance response rates

Structure (SMILES): CSc1ncnc2c1ncn2[C@@H]1O[C@H](CO)[C@@H](O)[C@H]1O [MMPR, 6-methylmercaptopurine riboside]
- effect on tumor growth / anticancer activity (in words) [1]: tumor growth was inhibited
- partial tumor regression (P.R.) rate [1]: no partial regressions
- effect of adding MMPR to L-alanosine (in words) [6]: further enhanced the sensitivity of the cells lacking MTAP activity to L-alanosine
- cell growth, % of control (mouse lymphoma cells): 25%
- intracellular tumor cell ATP pool, % of normal (control) (mouse lymphoma cells): 49%
- tumor ATP levels 48 hours after treatment, % of normal (saline-treated control tumors) [2]: 34%
- tumor ATP level, % of normal [2]: 34%
- 6 HW % Saline Control ([2]; seventh series copy of Table 1): 47%
- 24 HR % Saline Control [2, 12]: 47%
- 48 HR % Saline Control [2, 13]: 34%
- 72HR % Saline Control [2, 14]: 127%
- 6 HR % Saline Control ([2]; % of saline control): 47%
- 24 HR % Saline Control [2, 15]: 47%
- 48 HR % Saline Control [2, 16]: 34%
- 72HR % Saline Control [2, 17]: 127%

Structure (SMILES): COc1cccc2c1C(=O)c1c(O)c3c(c(O)c1C2=O)C[C@@](O)(C(=O)CO)C[C@@H]3O[C@H]1C[C@H](N)[C@H](O)[C@H](C)O1 [doxorubicin]
- enhancement of anticancer agent activity by co-administered MAP (in words) [3]: significantly enhance response rates

Structure (SMILES): CC(=O)O[C@H]1C(=O)[C@@]2(C)[C@H]([C@H](OC(=O)c3ccccc3)[C@]3(O)C[C@H](OC(=O)[C@H](O)[C@@H](NC(=O)c4ccccc4)c4ccccc4)C(C)=C1C3(C)C)[C@]1(OC(C)=O)CO[C@@H]1C[C@@H]2O [Taxol, paclitaxel]
- MTD (in vivo): 80 mg/kg
- PR/survivors (%) ([1]; Table 5, MAP ± taxol): no tumor regressions
- effect on tumor growth / anticancer activity (in words) [1]: statistically significant inhibition of tumor growth
- enhancement of anticancer agent activity by co-administered MAP (in words) [3]: significantly enhance response rates

Structure (SMILES): O=c1[nH]cc(F)c(=O)[nH]1 [FUra, 5-fluorouracil]
- MTD (in vivo): 100 mg/kg
- enhancement of anticancer agent activity by co-administered MAP (in words) [3]: significantly enhance response rates
- regressions of spontaneous autochthonous breast tumors, FUra alone at 75 mg/kg ([7]; 75 mg/kg): less than 5%
- PR rate, FUra alone at its MTD of 100 mg/kg ([7]; 100 mg/kg): ≤ 20%

Structure (SMILES): CC(=O)C(=O)O [Pyruvate, pyruvate]
- effect of pyruvate administration on treatment-induced weight loss / mortality [8]: diminishes the degree of weight loss
- effect of pyruvate administration on treatment-induced weight loss / mortality ([8]; listed as pyruvate): Unacceptable mortality (e.g., 30%) is prevented

Structure (SMILES): N.N.[Cl][Pt][Cl] [DDP, cisplatin]
- % Weight Change ([1]; Exp.3069F, after third course): −18%
- Dead/Total ([1]; Exp.3069F, after third course): 1/10
- Regressions/Survivors ([1]; Exp.3069F, after third course): 0/9
- Av. Tumor W't [1, 11]: 850 mg
- effect on tumor growth / anticancer activity (in words) [1]: limited to inhibition of tumor growth
- effect on tumor growth / anticancer activity (in words) ([1]; listed as cisplatin): significantly inhibited tumor growth
- Regressions/Survivors (%) ([1]; pooled five experiments, MAP ± DDP, one week after third course): produced no partial (i.e., greater than 50% shrinkage of tumors), or complete response
- MTD (maximum tolerated dose) of the agent alone ([1]; single agent, 10-11 day schedule, tumor-bearing CD8F1 mice): 7 mg/kg
- enhancement of anticancer agent activity by co-administered MAP (in words) [3]: significantly enhance response rates

Structure (SMILES): O=P1(N(CCCl)CCCl)NCCCO1 (stereo not drawn) [cyclophosphamide]
- enhancement of anticancer agent activity by co-administered MAP (in words) [3]: significantly enhance response rates
